Assay type in all cases: cell-based, HIV-1
Assay [1] concerns Recombinant wild type HIV strain recIIIB. The assay is described as follows: Antiviral MT4/MTT assay with reference virus recIIIB. The conditions noted are these: read-out: Anti-HIV-1 activity IC50 (μM) recIIIB ref (2). Here is the method: (§1) After titration of the new viruses, the stocks were used for antiviral experiments in the presence of serial dilutions of different HIV inhibitors. Titres of the harvested supematants were determined by limited serial dilution titration of virus in MT4 cells.
(§2) Viruses with a useful titre were used in antiviral experiments. For this purpose, 96-well microtitre plates were filled with 100μl of complete culture medium. Subsequently, stock solutions of compounds were added in 25 μl volumes to series of duplicate wells. HIV- and mock-infected cell samples were included for each drug (or drug combination). Exponentially growing MT4 cells were then transferred to the microtitre plates at a density of 150,000 cells/ml. The cell cultures were then incubated at 37° C. in a humidified atmosphere of 5% CO2. Five days after infection, the viability of the mock- and HIV-infected cells was examined spectrophotometrically by the M1T method (Pauwels, R. et al. J. Virol. Meth. (1988), 20: 309-321) as described in Section 6 below.
(§3) To each well of the microtiter plates, 20 μl of a solution of MTT (7.5 mg/ml in PBS) was added. The plates were further incubated at 37° C. for 1 h. Then, 150 μl of medium was removed without disturbing the MT4 cell clusters containing the formazan crystals. Solubilization of the formazan crystals was achieved by adding 100 μl 5% Triton X-100 in acidified isopropanol (5 ml concentrated HCl per liter solvent). Complete dissolution of the formazan crystals was obtained after the plates had been placed on a plate shaker for 10 min. Finally the absorbances were read at two wavelengths (540 and 690 nm). From these optical density (OD) data, 50% inhibitory (IC50) and 50% cytotoxic (CC50) concentrations were derived.

In assay [2] the test system is recombinant virus from patient viral RNA (Example 10, drug-naive patient). The assay is described as follows: Recombinant virus assay (MT4/MTT), drug-naive patient of Example 10. As to conditions: for IC50: Human immunodeficiency virus 1, Table 6, Example 10 patient virus; for ratio (1)/(2): Table 6, patient mean IC50 / recIIIB IC50, Example 10. Here is the method: (§4) RNA was isolated from 100 μl of plasma according to the method described by Boom, R. et al. (1990, supra), and was reverse transcribed with the GeneAmp reverse transcriptase kit (Perkin Elmer) as described by the manufacturer and using an HIV-1 specific downstream primer (OUT3: 5′-CATTGCTCTCCAATTACTGTGATATTTCTCATC-3′; SEQ ID NO: 1). PCR on reverse transcribed RNA was performed with inner and outer primers as described by Kellam, P. and Larder, B. A. (1994, supra). After chloroform extraction and centrifugation on Centricon 100 columns or centrifugation on anion-exchange spin columns (Quiagen), the isolated PCR product was ready for use in the transfection reactions.
(§5) MT4 cells were subcultured at a density of 250,000 cells/ml before transfection (exponential growth phase). Cells were pelleted and resuspended in phosphate buffered saline (PBS) at a concentration of […]. A 0.8 ml portion (2.5 10E6 cells/ml) was used for each transfection. Transfection was performed with the Bio-Rad Gene pulser making use of 0.4 cm electrode cuvettes. Cells were electroporated in the presence of […] of linearised pHIVΔRT plasmid and approximately 5 μg of RT PCR product at 250SF and 300 V, followed by a 30-min incubation at room temperature. Subsequently, 10 ml of fresh culture medium was added to the cell suspension and incubation was performed at 37° C. in a humidified atmosphere of 5% CO2.
(§6) During 7 to 10 days following the transfection, cells were monitored for the appearance of cytopathogenic effect (CPE). In the absence thereof, cells were subcultured in different flasks. Subsequently, culture supernatants of transfected cells were used to create a stock of recombinant virus and stored in 1.5 ml aliquots at −70° C.
as §1, §2, §3
A drug-naive HIV-infected patient donated plasma whose susceptibility to a number of RT inhibitors and protease inhibitors was determined according to the protocol set out in Example 1. Recombinant wild type HIV strain recIIIB was used as a reference HIV virus.

Assay [3] concerns recombinant virus from patient viral RNA (Example 11). The assay is described as follows: Recombinant virus assay (MT4/MTT), patient of Example 11 (therapy history RT and protease inhibitors). The conditions noted are these: for IC50: Human immunodeficiency virus 1, Table 7, Example 11 patient virus; for ratio (1)/(2): Table 7, patient mean IC50 / recIIIB IC50, Example 11. Here is the method:
as §4, §5, §6, §1, §2, §3
An HIV infected patient with a therapy history including RT and protease inhibitors donated plasma whose susceptibility to a number of RT inhibitors and protease inhibitors was determined according to the protocol set out in Example 1. Recombinant wild type HIV strain recIIIb was used as a reference HIV virus.

Assay [4] relates to recombinant virus from patient viral RNA (Example 12). Description: Recombinant virus assay (MT4/MTT), patient of Example 12 (therapy history RT and protease inhibitors). As to conditions: for susceptibility of the patient's HIV strain (in words): Example 12 patient, conclusion from Table 8; for IC50: Human immunodeficiency virus 1, Table 8, Example 12 patient virus; for ratio (1)/(2): Table 8, patient mean IC50 / recIIIB IC50, Example 12. Here is the method: as §4, §5, §6, §1, §2, §3
An HIV infected patient with a therapy history including RT and protease inhibitors donated plasma whose susceptibility to a number of RT inhibitors and protease inhibitors was determined according to the protocol set out in Example 1.

Where [5] appears, read: Human immunodeficiency virus 1, Table 6, reference run of Example 10.
Where [6] appears, read: Human immunodeficiency virus 1, Table 7, reference run of Example 11.
[7] abbreviates: Human immunodeficiency virus 1, Table 8, reference run of Example 12.
The mark [8] stands for this setting: MT4 cells, read-out: Anti-HIV-1 activity IC50 (μM) Exp. 1.
[9] abbreviates: MT4 cells, read-out: Anti-HIV-1 activity IC50 (μM) Exp. 2.
[10] abbreviates: mean, read-out: Anti-HIV-1 activity IC50 (μM) Mean (1).

Where two headings read alike, the source gives them in different places.

Experimental findings from patent US6528251B2, “Method of managing the chemotherapy of patients who are HIV positive based on the phenotypic drug sensitivity of human HIV strains” (Virco N.V., priority 1996, dated 2003) are described below.

Regarding `CC(C)(C)NC(=O)[C@@H]1CN(Cc2cccnc2)CCN1C[C@@H](O)C[C@@H](Cc1ccccc1)C(=O)N[C@H]1c2ccccc2C[C@H]1O` [indinavir], the half-inhibitory concentration (IC50) was 0.016 µM in assay [1] (setting [5]); 0.027 µM in assay [1] (setting [6]); 0.016 µM in assay [1] (setting [7]); 0.013 µM in assay [2] (setting [8]); 0.013 µM in assay [2] (setting [9]); 0.013 µM in assay [2] (setting [10]). Further, the IC50 in assay [3] (setting [8]) came to 0.229 µM; in assay [3] (setting [9]) it was 0.416 µM; in assay [3] (setting [10]), 0.323 µM; in assay [4] (setting [8]), 0.124 µM; in assay [4] (setting [10]), 0.124 µM. The results for the “ratio (1)/(2)” value in assay [2], in assay [3] and in assay [4] were 0.8, 12 and 8, respectively. Besides, the “susceptibility of the patient's HIV strain (in words)” value in assay [3] (Example 11 patient, conclusion from Table 7) is “decreased susceptibilty”; in assay [4], “decreased susceptibility”.
Consider `CC(C)(C)NC(=O)[C@@H]1C[C@@H]2CCCC[C@@H]2CN1C[C@@H](O)[C@H](Cc1ccccc1)NC(=O)[C@H](CC(N)=O)NC(=O)c1ccc2ccccc2n1` [saquinavir], for which the IC50 in assay [1] (setting [5]) was found to be 0.006 µM; in assay [1] (setting [6]), 0.012 µM; in assay [1] (setting [7]), 0.006 µM; in assay [2] (setting [8]), 0.003 µM; in assay [2] (setting [9]), 0.003 µM; in assay [2] (setting [10]), 0.003 µM. In addition, the IC50 amounted to 0.014 µM in assay [3] (setting [8]); 0.015 µM in assay [3] (setting [9]); 0.014 µM in assay [3] (setting [10]); 0.35 µM in assay [4] (setting [8]); 0.352 µM in assay [4] (setting [9]); 0.351 µM in assay [4] (setting [10]). Further, the “ratio (1)/(2)” value in assay [2] is given as 0.4; in assay [3], 1; in assay [4], 56. Also, in assay [4], the “susceptibility of the patient's HIV strain (in words)” value is reported as “decreased susceptibility”.
